{
  "source": "ChEMBL document CHEMBL4619702",
  "about": "“Inhibitors of the Zika virus protease NS2B-NS3” (Bioorg Med Chem Lett, 2020)",
  "key": {"Nonstructural protein 3 [1]": {"target": "T1, Nonstructural protein 3 (Zika virus, UniProt A0A024AXB9)", "experiment": "Inhibition of Zika virus NS2B-NS3 protease"}, "[2]": {"experiment": "Allosteric inhibition of Flavivirus NS2B-NS3 protease"}, "[3]": {"experiment": "Allosteric inhibition of Flavivirus NS2B-NS3 protease by cell based assay", "conditions": "Orthoflavivirus"}, "Nonstructural protein 3 [4]": {"target": "T1, Nonstructural protein 3", "experiment": "Allosteric inhibition of Zika virus NS2B-NS3 protease"}, "Genome polyprotein [5]": {"target": "T2, Genome polyprotein (West Nile virus, UniProt P06935)", "T2 sequence (P06935 1371-1501 limits assumed)": "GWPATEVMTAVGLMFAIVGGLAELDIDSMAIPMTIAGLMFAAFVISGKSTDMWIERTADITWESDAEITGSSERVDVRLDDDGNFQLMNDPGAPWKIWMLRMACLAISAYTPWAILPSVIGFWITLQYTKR", "T2 sequence (P06935 1502-2120 limits assumed)": "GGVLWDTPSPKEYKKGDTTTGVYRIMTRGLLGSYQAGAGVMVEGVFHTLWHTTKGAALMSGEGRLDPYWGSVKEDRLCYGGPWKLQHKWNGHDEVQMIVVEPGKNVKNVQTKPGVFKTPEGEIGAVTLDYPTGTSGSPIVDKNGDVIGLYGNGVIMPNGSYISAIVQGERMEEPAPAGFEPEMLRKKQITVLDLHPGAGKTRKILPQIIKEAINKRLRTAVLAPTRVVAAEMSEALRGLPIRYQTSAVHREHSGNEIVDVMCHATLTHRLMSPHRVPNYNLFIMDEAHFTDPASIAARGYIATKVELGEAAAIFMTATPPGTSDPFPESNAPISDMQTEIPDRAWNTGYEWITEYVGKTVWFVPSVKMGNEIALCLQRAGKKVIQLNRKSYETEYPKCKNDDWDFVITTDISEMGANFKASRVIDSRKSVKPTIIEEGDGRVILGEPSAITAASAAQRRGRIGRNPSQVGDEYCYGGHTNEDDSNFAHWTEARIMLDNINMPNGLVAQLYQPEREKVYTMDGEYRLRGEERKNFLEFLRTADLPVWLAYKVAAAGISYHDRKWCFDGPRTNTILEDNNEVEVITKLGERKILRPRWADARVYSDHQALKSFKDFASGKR", "experiment": "Binding affinity to West Nile virus NS2B-NS3 protease"}, "Nonstructural protein 3 [6]": {"target": "T1, Nonstructural protein 3", "experiment": "Binding affinity to Zika virus NS2B-NS3 protease"}, "Genome polyprotein [7]": {"target": "T2, Genome polyprotein", "experiment": "Inhibition of West Nile virus NS2B-NS3 protease"}, "[8]": {"target": "T3, Nonstructural protein 3 (Zika virus) (UniProt A0A024AXB9)", "experiment": "Inhibition of Zika virus NS2B-NS3 protease assessed as as ratio of K(obs)/[I] using biotin-tagged peptide (P4-P1) as substrate"}, "Nonstructural protein 3 [9]": {"target": "T1, Nonstructural protein 3", "experiment": "(§1) Inhibition of Zika virus NS2B-NS3 protease by cell based assay"}, "[10]": {"target": "T3, Nonstructural protein 3 (Zika virus)", "experiment": "as §1"}, "Nonstructural protein 3 [11]": {"target": "T1, Nonstructural protein 3", "experiment": "Binding affinity to N-terminal His-tagged Zika virus NS2B-NS3 protease (1 to 187 residues) using Boc-Gly-Arg-Arg-AMC as substrate"}, "Nonstructural protein 3 [12]": {"target": "T1, Nonstructural protein 3", "experiment": "Inhibition of N-terminal His-tagged Zika virus NS2B-NS3 protease (1 to 187 residues) using Boc-Gly-Arg-Arg-AMC as substrate"}},
  "note": "Where a SMILES comes first, the peptide text is derived from it. The star is where a group is joined. NHBn = c1ccc(CN*)cc1",
  "data": [
    {"smiles": "CN[C@@H](C)C(=O)N[C@H](C(=O)N1CC[C@H](C)[C@H]1C(=O)Nc1ccccc1-c1ncccn1)C1CCCCC1", "values": [
      {"measurement": "Ki", "setting": "Nonstructural protein 3 [1]", "result": 430, "unit": "nM"}
    ]},
    {"smiles": "C[C@@H]1CN(CC(=O)N2CCCC2)CCN1", "values": [
      {"measurement": "IC50", "setting": "[2]", "result": 380, "unit": "nM"},
      {"measurement": "EC50", "setting": "[3]", "result": 1000, "unit": "nM"}
    ]},
    {"smiles": "C[C@@H]1CN(CC(=O)N2CC(C)(C)c3ncc(Cc4ccc(F)cc4)cc32)[C@@H](CN2CCOC[C@H]2C)CN1", "values": [
      {"measurement": "IC50", "setting": "Nonstructural protein 3 [4]", "result": 820, "unit": "nM"}
    ]},
    {"smiles": "CN[C@@H](C)C(=O)N[C@H]1CC[C@H]2CC[C@@H](C(=O)NC(c3ccccc3)c3ccccc3)N2C1=O", "values": [
      {"measurement": "Kd", "setting": "Genome polyprotein [5]", "result": 2000, "unit": "nM"},
      {"measurement": "Kd", "setting": "Nonstructural protein 3 [6]", "result": 2000, "unit": "nM"},
      {"measurement": "IC50", "setting": "Nonstructural protein 3 [1]", "result": 1900, "unit": "nM"},
      {"measurement": "IC50", "setting": "Genome polyprotein [7]", "result": 1900, "unit": "nM"}
    ]},
    {"smiles": "CN[C@@H](C)C(=O)N[C@H]1CCCC[C@H]2CC[C@@H](C(=O)NC(c3ccccc3)c3ccccc3)N2C1=O", "values": [
      {"measurement": "IC50", "setting": "Nonstructural protein 3 [1]", "result": 100, "unit": "nM"}
    ]},
    {"smiles": "CN[C@@H](C)C(=O)N[C@H](C(=O)N1CCC[C@H]1c1nc(C(=O)c2ccc(F)cc2)cs1)C1CCCCC1", "values": [
      {"measurement": "Ratio", "setting": "[8]", "result": 2.94, "unit": "×10⁶ /M/s"}
    ]},
    {"smiles": "CC(C)[C@H](NC(=O)[C@H](C)N)C(=O)N1CCC[C@H]1C(=O)NCc1ccccc1", "note": "(H-Ala-Val-Pro-NHBn)", "values": [
      {"measurement": "Ki", "setting": "Nonstructural protein 3 [1]", "result": 140, "unit": "nM"}
    ]},
    {"smiles": "C[C@@H]1CN(CC(=O)N2CC(C)(C)c3nc(CO)c(Cc4ccc(F)cc4)cc32)[C@@H](CN2CCOC[C@H]2C)CN1", "note": "[ASTX-660]", "values": [
      {"measurement": "Ki", "setting": "Nonstructural protein 3 [1]", "result": "800 to 8900", "unit": "nM"}
    ]},
    {"smiles": "CC[C@H](NC(=O)[C@H](C)NC)C(=O)N1C[C@@H](O)C[C@H]1Cc1c(-c2[nH]c3cc(F)ccc3c2C[C@@H]2C[C@H](O)CN2C(=O)[C@H](CC)NC(=O)[C@H](C)NC)[nH]c2cc(F)ccc12", "note": "[BIRINAPANT]", "values": [
      {"measurement": "EC50", "setting": "Nonstructural protein 3 [9]", "result": "300 to 600", "unit": "nM"},
      {"measurement": "IC50", "setting": "[2]", "result": 200, "unit": "nM"}
    ]},
    {"smiles": "CC(C)C[C@H]1C(=O)N2CCC[C@H]2[C@]2(O)O[C@](NC(=O)[C@@H]3C=C4c5cccc6[nH]c(Br)c(c56)C[C@H]4N(C)C3)(C(C)C)C(=O)N12", "note": "[BROMOCRIPTINE]", "values": [
      {"measurement": "IC50", "setting": "Nonstructural protein 3 [1]", "result": 21600, "unit": "nM"},
      {"measurement": "EC50", "setting": "Nonstructural protein 3 [9]", "result": 13000, "unit": "nM"}
    ]},
    {"smiles": "O=C1OC2(c3ccccc31)c1cc(I)c(O)c(I)c1Oc1c2cc(I)c(O)c1I", "note": "[ERYTHROSINE]", "values": [
      {"measurement": "IC50", "setting": "Nonstructural protein 3 [1]", "result": 1700, "unit": "nM"},
      {"measurement": "EC50", "setting": "Nonstructural protein 3 [9]", "result": 600, "unit": "nM"}
    ]},
    {"smiles": "CN[C@@H](C)C(=O)N[C@H](C(=O)N1CCC[C@H]1C(=O)Nc1sc(-c2ncco2)nc1-c1ccccc1)C1CCCCC1", "note": "[GDC-0917]", "values": [
      {"measurement": "IC50", "setting": "Nonstructural protein 3 [1]", "result": 300, "unit": "nM"}
    ]},
    {"smiles": "CCN(CCO)CCCC(C)Nc1ccnc2cc(Cl)ccc12", "note": "(stereo unspecified) [HYDROXYCHLOROQUINE]", "values": [
      {"measurement": "Ki", "setting": "Nonstructural protein 3 [1]", "result": 92300, "unit": "nM"}
    ]},
    {"smiles": "CO[C@@H]1[C@@H](OC(N)=O)[C@@H](O)[C@H](Oc2ccc3c(O)c(NC(=O)c4ccc(O)c(CC=C(C)C)c4)c(=O)oc3c2C)OC1(C)C", "note": "[NOVOBIOCIN]", "values": [
      {"measurement": "IC50", "setting": "Nonstructural protein 3 [1]", "result": 14200, "unit": "nM"},
      {"measurement": "EC50", "setting": "Nonstructural protein 3 [9]", "result": 24800, "unit": "nM"}
    ]},
    {"smiles": "Cc1ccc(C(=O)Nc2ccc(S(=O)(=O)O)c3cc(S(=O)(=O)O)cc(S(=O)(=O)O)c23)cc1NC(=O)c1cccc(NC(=O)Nc2cccc(C(=O)Nc3cc(C(=O)Nc4ccc(S(=O)(=O)O)c5cc(S(=O)(=O)O)cc(S(=O)(=O)O)c45)ccc3C)c2)c1", "note": "[SURAMIN]", "values": [
      {"measurement": "EC50", "setting": "Nonstructural protein 3 [6]", "result": "1930 to 39800", "unit": "nM"},
      {"measurement": "IC50", "setting": "Nonstructural protein 3 [1]", "result": 47000, "unit": "nM"},
      {"measurement": "Kd", "setting": "Nonstructural protein 3 [9]", "result": 28000, "unit": "nM"}
    ]},
    {"smiles": "Oc1cccc(-c2c3nc(c(-c4cccc(O)c4)c4ccc([nH]4)c(-c4cccc(O)c4)c4nc(c(-c5cccc(O)c5)c5ccc2[nH]5)CC4)C=C3)c1", "note": "[TEMOPORFIN]", "values": [
      {"measurement": "IC50", "setting": "Nonstructural protein 3 [1]", "result": 1100, "unit": "nM"},
      {"measurement": "EC50", "setting": "Nonstructural protein 3 [9]", "result": 22, "unit": "nM"},
      {"measurement": "EC90", "setting": "[10]", "result": 120, "unit": "nM"}
    ]},
    {"smiles": "CN[C@@H](C)C(=O)N[C@H]1CN(C(=O)CC(C)C)CC[C@H]2CC[C@@H](C(=O)NC(c3ccccc3)c3ccccc3)N2C1=O", "note": "[XEVINAPANT]", "values": [
      {"measurement": "Kd", "setting": "Nonstructural protein 3 [11]", "result": 9000, "unit": "nM"},
      {"measurement": "IC50", "setting": "Nonstructural protein 3 [12]", "result": 4100, "unit": "nM"},
      {"measurement": "Ki", "setting": "Nonstructural protein 3 [12]", "result": 13500, "unit": "nM"}
    ]}
  ]
}
